The text below walks through data of patent publication US5308606A, “Method of treating and/or diagnosing soft tissue tumors” (priority 1991, dated 1994).

The test system of series [1] is bone. The following applies: pig, in vivo.
Description: (§1) Studies to determine the qualitative biodistribution of the various radionuclides were conducted by injecting the compositions into miniature pigs having melanotic lesions, which occur spontaneously. ^67 Ga-citrate was used as the control and was given by the same route of administration as the test samples.
(§2) Each injected solution was from 0.5-1 mL having 1-2 mCi of ^153 Sm present.
(§3) Images of each pig (right lateral, left lateral and dorsal) were taken at 4, 24, 48 and 72 hours. The 24 hour images were evaluated independently by 3 investigators using the following scheme for the uptake of ^153 Sm in various tissues:
1=Slight uptake (negligible)
2=Moderate uptake (intermediate)
(§4) The tissues evaluated were bone, liver and tumor.
Series [2] deals with liver. The following applies: pig, in vivo.
Description: as §1, §2, §3
1=Slight uptake (negligible)
2=Moderate uptake (intermediate)
as §4
The conditions of series [3]: in vivo; cited from earlier work.
The subject of series [4] is non-target tissues. The following applies: in vivo; cited from earlier work.
For series [5], the system named is bone. In words: Bone uptake, scored from images of miniature pigs by 3 investigators. To be noted: average score (0-3) of 3 investigators; head 72 hr, text 24 hour images; one value per pig.
Description: as §1, §2, §3
1=Slight uptake (negligible)
2=Moderate uptake (intermediate)
as §4
Series [6] relates to liver. Kind of series: Liver uptake, scored from images of miniature pigs by 3 investigators.
Description: as §1, §2, §3
1=Slight uptake (negligible)
2=Moderate uptake (intermediate)
as §4
A short description of series [7]: Whole body retention in miniature pigs having naturally occurring melanomic lesions.
Description: as §1
Each injected solution was from 0.5-1 mL having 1-2 mCi of ^153 Sm present. Each pig had whole body counts immediately after injection and again at 24, 48 and 72 hours.
as §3
The subject of series [8] is tumor. Kind of series: Tumor uptake, scored from images of miniature pigs having melanomic lesions by 3 investigators. The following applies: for Tumor Uptake (Location): average score (0-3) of 3 investigators.
Description: as §1, §2, §3
1=Slight uptake (negligible)
2=Moderate uptake (intermediate)
as §4
For series [9], the system named is liver. To be noted: in vivo; cited from earlier work.
For series [10] the following is noted: in vivo; cited from earlier work. This is another data set of the same source.
The subject of series [11] is Ehrlich tumors. To be noted: animals bearing Ehrlich tumors; cited from earlier work.

Values joined by “and” are separate entries in the source; they are usually repeats but may differ in a detail not shown here. Equal entries are not always repeated. Where two headings read alike, the source gives them in different places.

With `CC(=O)Nc1cc(CN(CC(=O)O)CC(=O)O)c(O)c(CN(CC(=O)O)CC(=O)O)c1.[153Sm+3]` [Example 1], in series [1], the “Bone Uptake (72 hr)” value is 3.00. In addition, in [2], the “Liver Uptake (72 hrs)” value turned out to be 1.00.

On to `O=C([O-])CC(O)(CC(=O)[O-])C(=O)[O-].[67Ga+3]` [B], for which the “rate of blood clearance” value in series [3] is reported as “slow”. The “uptake in non-target tissues” value in series [4] was “high uptake”. Also, in series [5], the “Bone Uptake (72 hr)” value is 1.00. Also, the “Liver Uptake (72 hrs)” value in [6] (average score (0-3) of 3 investigators, head 72 hrs, text 24 hour images, one value per pig) was determined as 3.00. Also, the liver uptake entry in [6] (miniature pigs, in words) was “unacceptably large liver uptake”. Besides, the “% Whole Body Retention (72 hrs.)” value in [7] (72 hrs, L/M ratio 20 (A), 257 (1), one value per pig) was 98.5 % of injected dose and 96.7 % of injected dose and 97.1 % of injected dose. Besides, the “clearance of the extra-cellular fluid” value in series [7] (in words) is on record as “never cleared the extra-cellular fluid”. The “Tumor Uptake (Location)” value in [8] (Draining node) is given as 1.67; in series [8] (Left head), 3.00; in series [8] (Left sacrum), 0.00; in [8] (Right head), 0.33; in series [8] (Right stifle), 2.00; in series [8] (Right thorax) it was 3.00. Further, in series [8] (miniature pigs, relative to background radiation), the tumor image entry is “almost indistinguishable from the high background radiation”.

As for `[Cl][153Sm]([Cl])[Cl]` [^153 Sm-chloride], the liver uptake entry in series [9] is given as “high liver uptake”.

For the compound `O=C([O-])CN(CCN(CC(=O)[O-])CC(=O)[O-])CCN(CC(=O)[O-])CC(=O)[O-].[99Tc+4]` [^99m Tc-DTPA], in series [10], the “elimination of the radionuclide” value is recorded as “eliminated from the body by the kidneys into the urine” and the “tissue localization of the radionuclide” value is on record as “does not result in the radionuclide localizing in any tissue”.

For the compound ^153 Sm-citrate, the liver uptake entry in series [9] was “high liver uptake”.

Regarding ^99m Tc-ethylenediaminediacetic acid, the imaging of tumors result in series [11] is listed as “could be used to image tumors”.
